This note sets out measurements from patent publication US7087620B2, “Liquid pharmaceutical formulations containing 3,7-diazabicyclo[3,3,1]nonane compounds and methods of treatment relating to anti-arrhythmic events” (Solvay Pharmaceuticals GmbH, priority 2002, dated 2006).

Molecules are shown by their SMILES. Where a name gives a salt, the structure may show the parent alone.

The subject of the data set is healthy male subjects. The data set can be described thus: Two step infusion study in healthy male subjects: safety and tolerability. It counts as in vivo, human. As for the experimental part:
A double-blind, placebo-controlled, randomized, single iv dose, two periods cross-over study to assess the safety, tolerability, pharmacodynamics and pharmacokinetics during and following a two step infusion of Tedisamil in healthy male subjects was performed with the following drug and dosages: Tedisamil dihydrochloride/0.4 mg/kg body weight infused over 30 minutes.
Screening assessments included physical examination, ECG, HIV/Hepatitis screening, blood pressure and heart rate measurements, clinical laboratory determinations, urine drug screen, alcohol breath test, and medical history. Follow-up assessments included physical examination, ECG, blood pressure and heart rate measurements, clinical laboratory determinations, and questions for adverse events and concomitant medication. During concomitant administration of Tedisamil, blood pressure, heart rate, and ECGs were recorded. Adverse events and concomitant medication were monitored throughout the study.
Subjects who received study medication, were considered valid for safety evaluation.
Treatment emergent adverse events, defined as any adverse event present at baseline that worsened or any event that began after treatment with study medication, were summarized by COSTART term for each treatment group. Each adverse event was evaluated for frequency of occurrence, duration, intensity, action taken, outcome, and relationship to administration of the study medication. Adverse events were listed for each subject.
Listings of abnormal or out of range values for each subject were presented for vital signs, laboratory assays, and physical examinations. Adverse events, blood pressure, heart rate and clinical laboratory data were analyzed descriptively and reviewed to evaluate the safety of all randomized subjects. Any clinical abnormalities were described.

For the molecule `C1CCC2(C1)C1CN(CC3CC3)CC2CN(CC2CC2)C1` [tedisamil dihydrochloride, N,N′-dicyclopropylmethyl-9,9-tetramethylen-3,7-diazabicyclo[3,3,1]nonane dihydrochloride], under “0.4 mg/kg iv two step infusion”, the “Findings in hematology, clinical chemistry, urinalysis and vital signs” value is “No clinically relevant findings”. The Safety and tolerability result (two step infusion of 0.4 mg tedisamil dihydrochloride per kg (0.32 mg/kg base), dihydrochloride) is “well tolerated”.
